Read-outs that look alike come from different tables or passages of the source.

Assay [1] addresses Focal Adhesion Kinase (FAK) (Homo sapiens, UniProt Q05397). The experiment in a line: FAK assay system (Focal Adhesion Kinase inhibition). The class given is biochemical.
For assay [2], the system named is Mouse mammary carcinoma 4T1 cells. The experiment in a line: Anchorage-independent tumor cell growth assay. The class given is cell-based. On the procedure: Cells are cultured for 2 h and inhibitors are added at various concentrations in a final concentration of 0.1% DMSO. After 48 h, cell growth is assayed with the cell counting kit-8 (Wako Pure Chemical), which uses a water soluble tetrazolium salt WST8. Twenty μL of the reagent is added into each well and cells are further cultured for 2 h. The optical density is measured at 450 nm.

The next assay has as its target FAK (Mus musculus, UniProt P34152). The assay is described as follows: Phos IC50 (phosphorylation). Format: cell-based.
A further assay deals with T Cell. The assay is described as follows: T Cell Migration. Format: cell-based.
The target of the next assay is IGF-IR (Homo sapiens, UniProt P08069). The experiment in a line: Cellular Capture ELISA of IGF-I induced autophosphorylation of the IGF-IR. To be noted: read-out: IGF-1R IC50. The class given is cell-based. On the procedure: In this assay the activity of the compounds of the invention against Insulin-like growth factor I (IGF-I) induced autophosphorylation of the IGF-IR is determined.
Background: In an ELISA, binding on a coated surface is turned into a signal by an enzyme label.

Sequence of IGF-IR (P08069 31-1367): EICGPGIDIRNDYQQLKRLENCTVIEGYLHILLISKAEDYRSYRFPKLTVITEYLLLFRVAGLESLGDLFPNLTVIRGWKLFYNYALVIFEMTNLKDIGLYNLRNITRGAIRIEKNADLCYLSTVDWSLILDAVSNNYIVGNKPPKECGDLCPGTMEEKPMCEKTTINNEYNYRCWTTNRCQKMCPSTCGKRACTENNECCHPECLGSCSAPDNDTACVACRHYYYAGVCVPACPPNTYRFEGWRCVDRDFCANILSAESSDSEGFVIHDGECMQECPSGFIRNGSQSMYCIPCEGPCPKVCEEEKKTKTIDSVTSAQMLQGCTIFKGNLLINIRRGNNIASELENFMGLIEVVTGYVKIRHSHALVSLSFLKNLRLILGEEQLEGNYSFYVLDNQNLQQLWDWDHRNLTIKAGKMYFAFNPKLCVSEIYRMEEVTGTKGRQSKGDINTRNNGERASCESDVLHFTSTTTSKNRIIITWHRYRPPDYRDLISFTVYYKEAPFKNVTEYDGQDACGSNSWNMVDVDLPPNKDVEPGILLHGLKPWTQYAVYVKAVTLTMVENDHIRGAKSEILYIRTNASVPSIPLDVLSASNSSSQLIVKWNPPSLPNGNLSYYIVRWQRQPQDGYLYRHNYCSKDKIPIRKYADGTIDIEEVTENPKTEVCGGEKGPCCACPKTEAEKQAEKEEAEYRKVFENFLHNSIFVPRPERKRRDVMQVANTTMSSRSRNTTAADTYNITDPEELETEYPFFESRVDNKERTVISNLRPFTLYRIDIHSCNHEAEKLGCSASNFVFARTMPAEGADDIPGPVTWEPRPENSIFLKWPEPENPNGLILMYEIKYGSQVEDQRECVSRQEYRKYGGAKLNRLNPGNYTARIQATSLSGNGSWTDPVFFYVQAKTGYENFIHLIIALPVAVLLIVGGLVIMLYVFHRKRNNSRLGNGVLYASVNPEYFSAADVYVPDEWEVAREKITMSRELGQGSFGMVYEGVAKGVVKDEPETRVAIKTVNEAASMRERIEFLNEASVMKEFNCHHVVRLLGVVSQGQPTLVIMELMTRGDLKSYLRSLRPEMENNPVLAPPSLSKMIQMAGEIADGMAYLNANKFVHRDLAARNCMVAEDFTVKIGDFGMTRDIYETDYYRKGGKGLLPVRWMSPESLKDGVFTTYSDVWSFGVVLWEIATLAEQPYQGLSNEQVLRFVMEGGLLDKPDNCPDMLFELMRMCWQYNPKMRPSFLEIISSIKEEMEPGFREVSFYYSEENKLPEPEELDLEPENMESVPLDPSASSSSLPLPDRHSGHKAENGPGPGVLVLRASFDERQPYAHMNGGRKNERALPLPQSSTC
Sequence of FAK (P34152 2-1052): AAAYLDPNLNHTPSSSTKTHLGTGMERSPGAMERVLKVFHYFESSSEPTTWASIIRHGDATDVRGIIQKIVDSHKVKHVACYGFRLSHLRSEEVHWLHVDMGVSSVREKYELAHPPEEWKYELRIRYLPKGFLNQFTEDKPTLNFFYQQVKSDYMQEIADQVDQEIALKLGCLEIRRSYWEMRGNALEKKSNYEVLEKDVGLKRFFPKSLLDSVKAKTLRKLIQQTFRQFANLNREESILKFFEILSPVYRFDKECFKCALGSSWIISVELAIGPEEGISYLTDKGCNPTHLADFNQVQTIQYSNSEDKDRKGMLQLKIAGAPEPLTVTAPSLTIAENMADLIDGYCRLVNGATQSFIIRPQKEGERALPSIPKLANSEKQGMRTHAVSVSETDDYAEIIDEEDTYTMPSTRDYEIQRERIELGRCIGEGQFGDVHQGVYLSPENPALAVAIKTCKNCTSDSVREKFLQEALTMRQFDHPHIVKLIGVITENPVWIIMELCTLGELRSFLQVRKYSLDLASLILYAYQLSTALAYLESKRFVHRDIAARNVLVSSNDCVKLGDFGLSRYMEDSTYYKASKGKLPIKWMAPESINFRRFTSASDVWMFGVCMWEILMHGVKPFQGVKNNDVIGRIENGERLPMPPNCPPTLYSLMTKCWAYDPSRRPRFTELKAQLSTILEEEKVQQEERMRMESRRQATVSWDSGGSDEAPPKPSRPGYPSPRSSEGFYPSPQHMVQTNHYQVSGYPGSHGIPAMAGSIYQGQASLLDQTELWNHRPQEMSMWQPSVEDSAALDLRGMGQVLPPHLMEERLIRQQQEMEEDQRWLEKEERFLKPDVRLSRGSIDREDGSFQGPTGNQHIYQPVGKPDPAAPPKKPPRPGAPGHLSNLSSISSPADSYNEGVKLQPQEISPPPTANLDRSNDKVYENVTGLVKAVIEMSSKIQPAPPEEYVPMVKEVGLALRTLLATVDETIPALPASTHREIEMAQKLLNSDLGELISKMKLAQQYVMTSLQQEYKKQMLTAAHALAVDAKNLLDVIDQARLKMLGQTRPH
Sequence of Focal Adhesion Kinase (FAK) (Q05397 384-706): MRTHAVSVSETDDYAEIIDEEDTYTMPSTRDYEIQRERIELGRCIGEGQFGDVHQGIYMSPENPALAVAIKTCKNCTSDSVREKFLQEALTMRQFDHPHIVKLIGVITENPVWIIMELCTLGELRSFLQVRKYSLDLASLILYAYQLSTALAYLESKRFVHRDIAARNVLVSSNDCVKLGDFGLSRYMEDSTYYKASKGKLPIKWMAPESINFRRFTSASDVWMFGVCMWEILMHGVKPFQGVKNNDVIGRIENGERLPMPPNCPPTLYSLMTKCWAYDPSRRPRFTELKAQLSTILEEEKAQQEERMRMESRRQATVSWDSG

A word on the IC50: it is the midpoint of a concentration-inhibition curve. For `COc1cc(N2CCC(N3CCOCC3)CC2)ccc1Nc1ncc(Cl)c(Nc2ccccc2S(=O)(=O)C(C)C)n1` [Example 28-13], the IC50 in assay [1] (read-out: FAK IC50) amounted to 7.8 nM; in assay [2] (Mus musculus, 4T1), 550 nM; against FAK it was 100 nM; in the assay on T Cell (T-cell), 290 nM.

Turning to `CCC(CC)NS(=O)(=O)c1ccccc1Nc1nc(Nc2ccc(OC3CCN(C)CC3)cc2OC)ncc1Cl` [Example 23-1], the IC50 was determined as 3.4 nM in assay [1] (read-out: FAK IC50); 530 nM on IGF-IR; 200 nM in assay [2] (Mus musculus, 4T1); 600 nM against FAK; 630 nM with T Cell (T-cell).

With `CNS(=O)(=O)c1ccccc1Nc1nc(Nc2cc(N(C)C)ccc2OC)ncc1Br` [Example 3-64], the IC50 in assay [1] (read-out: FAK IC50) amounted to 5 nM; in assay [2] (Mus musculus, 4T1), 700 nM; at FAK it was 130 nM; in the assay on T Cell (T-cell) it was 210 nM.

For `COc1cc(N2CCOCC2)ccc1Nc1ncc(Cl)c(Nc2ccccc2C(=O)N(C)C)n1` [Example 14-1], the IC50 was 19 nM in assay [1] (read-out: FAK IC50); 1470 nM in assay [2] (Mus musculus, 4T1); 200 nM against FAK; 280 nM with T Cell (T-cell).

In the case of `CNS(=O)(=O)c1ccccc1Nc1nc(Nc2ccc(N3CCN(C(C)=O)CC3)cc2OC)ncc1Br` [Example 3-46], the IC50 in assay [1] (read-out: FAK IC50) was 4 nM; in assay [2] (Mus musculus, 4T1), 180 nM; against FAK it was 100 nM; in the assay on T Cell (T-cell), 300 nM.

As to `CNS(=O)(=O)c1ccccc1Nc1nc(Nc2ccc(OC3CCN(C)CC3)cc2OC)ncc1Br` [Example 3-33], the IC50 was 2.9 nM in assay [1] (read-out: FAK IC50); 130 nM on IGF-IR; 50 nM in assay [2] (Mus musculus, 4T1); 30 nM against FAK; 90 nM in the assay on T Cell (T-cell).

Turning to `COc1cc(N2CCOCC2)ccc1Nc1ncc(Cl)c(Nc2ccccc2S(=O)(=O)NC(C)C)n1` [Example 19-8], the IC50 in assay [1] (read-out: FAK IC50) was found to be 3.2 nM; at IGF-IR, 130 nM; in assay [2] (Mus musculus, 4T1) it was 400 nM; at FAK, 30 nM; with T Cell (T-cell), 290 nM.

On to `CNC(=O)c1ccccc1Nc1nc(Nc2ccc(N3CCC(NC)C3)cc2OC)ncc1Cl` (stereo not shown) [Example 7-12], for which the IC50 in assay [1] (read-out: FAK IC50) was 1.9 nM; on IGF-IR, 620 nM; in assay [2] (Mus musculus, 4T1), 1000 nM; against FAK, 900 nM; in the assay with T Cell (T-cell) it was 310 nM.

For the compound `CNS(=O)(=O)c1ccccc1Nc1nc(Nc2ccc(N3CCN(C)CC3)cc2OC)ncc1Cl` [Example 20-6], the IC50 was found to be 5 nM in assay [1] (read-out: FAK IC50); 140 nM in assay [2] (Mus musculus, 4T1); 360 nM on FAK; 49000 nM with T Cell (T-cell).

Turning to `CCCS(=O)(=O)c1ccccc1Nc1nc(Nc2ccc(N3CCN(C(C)=O)C(C)(C)C3)cc2OC)ncc1Cl` [Example 26-11], the IC50 was determined as 4.4 nM in assay [1] (read-out: FAK IC50); 780 nM in assay [2] (Mus musculus, 4T1); 400 nM against FAK; 500 nM in the assay on T Cell (T-cell).

With `CC(C)NS(=O)(=O)c1ccccc1Nc1nc(Nc2ccc(OC3CCN(C)CC3)cc2F)ncc1Cl` [Example 19-28], the IC50 in assay [1] (read-out: FAK IC50) was 4.8 nM; at IGF-IR it was 460 nM; in assay [2] (Mus musculus, 4T1), 120 nM; against FAK, 100 nM; in the assay with T Cell (T-cell), 300 nM.

As to `CNS(=O)(=O)c1ccccc1Nc1nc(Nc2ccc(N3CCN(C(C)=O)CC3)cc2OC)ncc1Cl` [Example 20-2], the IC50 came to 9 nM in assay [1] (read-out: FAK IC50); 520 nM on IGF-IR; 170 nM in assay [2] (Mus musculus, 4T1); 120 nM against FAK; 750 nM in the assay on T Cell (T-cell).

`CCCS(=O)(=O)c1ccccc1Nc1nc(Nc2ccc(N3CCC(O)CC3)cc2OC)ncc1Cl` [Example 26-4]: the IC50 is 4.9 nM in assay [1] (read-out: FAK IC50); 1160 nM at IGF-IR; 430 nM in assay [2] (Mus musculus, 4T1); 50 nM against FAK; 290 nM with T Cell (T-cell).

As to `CNC(=O)c1ccccc1Nc1nc(Nc2cc(N3CCOCC3)ccc2OC)ncc1Cl` [Example 7-6], the IC50 in assay [1] (read-out: FAK IC50) worked out at 17 nM; in assay [2] (Mus musculus, 4T1), 1090 nM; on FAK, 800 nM; in the assay with T Cell (T-cell) it was 250 nM.

`CCCS(=O)(=O)c1ccccc1Nc1nc(Nc2ccc(N3CCN(C(C)=O)CC3)cc2OC)ncc1Cl` [Example 26-2]: the IC50 in assay [1] (read-out: FAK IC50) came to 1.9 nM; on IGF-IR, 390 nM; in assay [2] (Mus musculus, 4T1), 120 nM; on FAK it was 30 nM; in the assay on T Cell (T-cell), 90 nM.

`CNS(=O)(=O)c1ccccc1Nc1nc(Nc2cc(N3CCC(N4CCCCC4)CC3)ccc2OC)ncc1Br` [Example 3-69]: the half-inhibitory concentration (IC50) in assay [1] (read-out: FAK IC50) turned out to be 4 nM; in assay [2] (Mus musculus, 4T1) it was 110 nM; on FAK, 200 nM; in the assay on T Cell (T-cell) it was 580 nM.

Regarding `CCNC(=O)c1ccccc1Nc1nc(Nc2ccc(N3CCOCC3)cc2OC)ncc1Cl` [Example 9-1], the IC50 in assay [1] (read-out: FAK IC50) was 22 nM; in assay [2] (Mus musculus, 4T1) it was 1000 nM; against FAK, 360 nM; in the assay on T Cell (T-cell), 600 nM.

Consider `COc1cc(N2CCOCC2)ccc1Nc1ncc(Cl)c(Nc2cccc3c2C(=O)N(C)C3)n1` [Example 12-1, 7-[5-Chloro-2-(2-methoxy-4-morpholin-4-yl-phenylamino)-pyrimidin-4-ylamino]-2-methyl-2,3-dihydro-isoindol-1-one], for which the IC50 in assay [1] (read-out: FAK IC50) was 2.5 nM; in assay [2] (Mus musculus, 4T1), 400 nM; at FAK, 90 nM; in the assay with T Cell (T-cell) it was 220 nM.

Consider `CNS(=O)(=O)c1ccccc1Nc1nc(Nc2cc(N3CCOCC3)ccc2OC)ncc1Br` [Example 3-32], for which the IC50 in assay [1] (read-out: FAK IC50) is 14 nM; at IGF-IR, 120 nM; in assay [2] (Mus musculus, 4T1), 490 nM; against FAK, 180 nM; in the assay on T Cell (T-cell), 280 nM.

With `COc1cc(N2CCC(N(C)C)C2)ccc1Nc1ncc(Cl)c(Nc2ccccc2S(=O)(=O)NC(C)C)n1` (stereo not shown) [Example 19-9], the IC50 turned out to be 1.3 nM in assay [1] (FAK IC50); 480 nM at IGF-IR; 390 nM in assay [2] (Mus musculus, 4T1); 300 nM in the assay with T Cell (T-cell).

For the compound `COc1cc(N2CCN(C)CC2)ccc1Nc1ncc(Cl)c(Nc2ccccc2S(=O)(=O)NC(C)C)n1` [Example 19-5], the IC50 was 1.8 nM in assay [1] (read-out: FAK IC50), 670 nM in assay [2], 200 nM against FAK and 70 nM with T Cell.

`CNS(=O)(=O)c1ccccc1Nc1nc(Nc2cc(OCCN3CCOCC3)ccc2OC)ncc1Br` [Example 3-35]: the IC50 in assay [1] (read-out: FAK IC50) was 13 nM; on IGF-IR it was 3550 nM; in assay [2] (Mus musculus, 4T1), 170 nM; against FAK, 20 nM; in the assay with T Cell (T-cell) it was 800 nM.

Consider `CNS(=O)(=O)c1ccccc1Nc1nc(Nc2ccc(N3CCN(C)CC3)cc2OC)ncc1Br` [Example 3-39], for which the IC50 was determined as 2 nM in assay [1] (read-out: FAK IC50); 90 nM on IGF-IR; 30 nM in assay [2] (Mus musculus, 4T1); 20 nM at FAK; 1000 nM with T Cell (T-cell).

In the case of `COc1cc(N2CCC(O)CC2)ccc1Nc1ncc(Cl)c(Nc2ccccc2S(=O)(=O)C(C)C)n1` [Example 28-16], the IC50 in assay [1] (read-out: FAK IC50) is 11 nM; in assay [2] (Mus musculus, 4T1), 1000 nM; at FAK, 110 nM; in the assay with T Cell (T-cell), 600 nM.

With `CNS(=O)(=O)c1ccccc1Nc1nc(Nc2cc(OC3CCN(C)CC3)ccc2OC)ncc1Br` [Example 3-76], the IC50 in assay [1] (read-out: FAK IC50) was found to be 15 nM; in assay [2] (Mus musculus, 4T1), 1300 nM; against FAK, 290 nM; with T Cell (T-cell) it was 700 nM.

As for `CCNC(=O)c1ccccc1Nc1nc(Nc2ccc(OC3CCN(C)CC3)cc2OC)ncc1Cl` [Example 9-6], the IC50 in assay [1] (read-out: FAK IC50) turned out to be 23 nM; in assay [2] (Mus musculus, 4T1), 400 nM; against FAK, 3000 nM; in the assay with T Cell (T-cell), 300 nM.

`CCCS(=O)(=O)c1ccccc1Nc1nc(Nc2ccc(N3CCC(N(C)C)C3)cc2OC)ncc1Cl` (stereo not shown) [Example 26-24]: the IC50 was determined as 1 nM in assay [1] (read-out: FAK IC50), 480 nM in assay [2], 500 nM against FAK and 900 nM in the assay on T Cell.

For `COc1cc(N2CCC[C@@H](C(N)=O)C2)ccc1Nc1ncc(Cl)c(Nc2ccccc2S(=O)(=O)C(C)C)n1` [Example 28-28], the IC50 in assay [1] (read-out: FAK IC50) was determined as 5.2 nM; in assay [2] (Mus musculus, 4T1), 520 nM; against FAK, 400 nM; with T Cell (T-cell), 1000 nM.

Consider `CNC1CCN(c2ccc(Nc3ncc(Cl)c(Nc4ccccc4S(=O)(=O)NC(C)C)n3)c(OC)c2)C1` (stereo not shown) [Example 19-1], for which the IC50 was less than 1 nM in assay [1] (read-out: FAK IC50); 1410 nM at IGF-IR; 300 nM in assay [2] (Mus musculus, 4T1); 200 nM against FAK; 290 nM in the assay on T Cell (T-cell).

Turning to `COc1cc(N2CCOCC2)ccc1Nc1ncc(Cl)c(Nc2ccccc2C(=O)NC(C)C)n1` [Example 14-2], the IC50 in assay [1] (read-out: FAK IC50) was 190 nM; in assay [2] (Mus musculus, 4T1), 1100 nM; on FAK it was 2000 nM; in the assay with T Cell (T-cell) it was 1000 nM.

Turning to `CNS(=O)(=O)c1ccccc1Nc1nc(Nc2ccc(N3CCOCC3)cc2OC)ncc1Cl` [Example 20-1], the IC50 in assay [1] (read-out: FAK IC50) was determined as 10 nM; on IGF-IR, 700 nM; in assay [2] (Mus musculus, 4T1) it was 180 nM; at FAK it was 300 nM; in the assay on T Cell (T-cell) it was 250 nM.

As for `CCCS(=O)(=O)c1ccccc1Nc1nc(Nc2cc(N3CCOCC3)ccc2OC)ncc1Cl` [Example 26-17], the IC50 in assay [1] (read-out: FAK IC50) is 17 nM; in assay [2] (Mus musculus, 4T1) it was 100 nM; on FAK it was 300 nM; in the assay on T Cell (T-cell), 260 nM.

Turning to `COc1cc(N2CCC[C@H](C(N)=O)C2)ccc1Nc1ncc(Cl)c(Nc2ccccc2S(=O)(=O)C(C)C)n1` [Example 28-27], the IC50 in assay [1] (read-out: FAK IC50) was determined as 2.4 nM; in assay [2] (Mus musculus, 4T1), 420 nM; against FAK, 300 nM; with T Cell (T-cell), 500 nM.

For the origin of these results see patent publication US7893074B2, “2, 4-pyrimidinediamines useful in the treatment of neoplastic diseases, inflammatory and immune system disorders” (Novartis AG, priority 2003, dated 2011).
